The values below come from patent US20250205221A1, “MUSCLE RELAXANT” (priority 2022, published 2025).

Experiment [1] has as its system twitch response of the gastrocnemius muscle. The experiment can be described thus: Evaluation of neuromuscular blocking effect (time to complete recovery of twitch response). The class given is in vivo, Male Sprague Dawley rats. The following applies: for time until the muscle contraction (twitch response) was completely recovered: rats under isoflurane, dose inducing 95-99.9% neuromuscular block (ED95-99.9) via right jugular vein, sciatic nerve stimulation 0.1 Hz; for duration of action relative to succinylcholine: rats, doses inducing 95-99.9% neuromuscular block. The method, then:
Male Sprague Dawley rats (about 300 g body weight) were used in the experiment. Anesthesia was first induced by 4 to 5% isoflurane inhalation and then maintained by 2 to 3% isoflurane inhalation. A warming system was used to keep the body temperature at 36 to 37° C. Lidocaine was infiltrated into the incision site. Tracheostomy was performed and a 16G catheter was inserted to secure the airway. The animals were ventilated by isoflurane and oxygen inhalation using a rodent ventilator at a tidal volume of 10 mL/kg and a respiratory rate of 70/min. A […] catheter was indwelled in the right jugular vein for drug administration. A small slide electrode was attached to the sciatic nerve, and supramaximal stimulation was applied at a frequency of 0.1 Hz and a pulse width of 0.2 ms using an electrostimulator. Using a force transducer, the twitch response of the gastrocnemius muscle was captured, amplified, and recorded. After the amplitude of the twitch response stabilized, a dose of succinylcholine or the JH-cpd series (JH013, JH014) inducing 95-99.9% neuromuscular block was administered, and the time until the muscle contraction (twitch response) was completely recovered was measured.

For experiment [2] the following is noted: reported in Non-Patent Document 1; cited from earlier work.

As for `COc1ccc(CC2c3cc(OC)c(OC)cc3CC[N+]2(C)CCCOC(=O)/C=C/C(=O)OCC[N+](C)(C)C)cc1OC` (stereo not drawn) [JH013], in experiment [1], the “time until the muscle contraction (twitch response) was completely recovered” value (shortened to “time until the muscle contraction”) was found to be 5.5 min and the “duration of action relative to succinylcholine” value is reported as “approximately half”.

On to `COc1ccc(CC2c3cc(OC)c(OC)cc3CC[N+]2(C)CCOC(=O)/C=C/C(=O)OCC[N+](C)(C)C)cc1OC` (stereo not drawn) [JH014], for which, in experiment [1], the “time until the muscle contraction” value came to 7.5 min and the “duration of action relative to succinylcholine” value was “approximately two-thirds”.

With `C[N+](C)(C)CCOC(=O)CCC(=O)OCC[N+](C)(C)C` [succinylcholine, reference compound], the “duration of action at clinical doses” value in experiment [2] is on record as “approximately 10 minutes”. Also, in experiment [1], the “time until the muscle contraction” value stood at 11 min.
